Reference: patent US20250114345A1, “COMPOUNDS AND COMPOSITIONS AS CBP/P300 DEGRADERS AND USES THEREOF” (Oncopia Therapeutics, Inc. d/b/a/ SK Life Science Labs, priority 2023, published 2025)

Biological target: T1, p300 (Homo sapiens, UniProt Q09472)
T1 construct: host or cells: A549 P300 HiBit cells
Test: P300 degradation, HiBit technology in A549 P300 HiBit cells (2 h)
Type: cell-based
Conditions: 2 hrs post treatment; for Dmax: A549, A549 P300 HiBit cells; for DC50: A549 P300 HiBit cells
In short: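 Luminescence after lytic HiBiT detection (10 min, room temperature) gave degradation potency and Dmax. Before that, knock-in A549 cells grown overnight in F-12K/10% HI-FBS were exposed to serially diluted compound at 37 °C, 5% CO2 for the assay time stated.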

T1 sequence (Q09472 whole entry): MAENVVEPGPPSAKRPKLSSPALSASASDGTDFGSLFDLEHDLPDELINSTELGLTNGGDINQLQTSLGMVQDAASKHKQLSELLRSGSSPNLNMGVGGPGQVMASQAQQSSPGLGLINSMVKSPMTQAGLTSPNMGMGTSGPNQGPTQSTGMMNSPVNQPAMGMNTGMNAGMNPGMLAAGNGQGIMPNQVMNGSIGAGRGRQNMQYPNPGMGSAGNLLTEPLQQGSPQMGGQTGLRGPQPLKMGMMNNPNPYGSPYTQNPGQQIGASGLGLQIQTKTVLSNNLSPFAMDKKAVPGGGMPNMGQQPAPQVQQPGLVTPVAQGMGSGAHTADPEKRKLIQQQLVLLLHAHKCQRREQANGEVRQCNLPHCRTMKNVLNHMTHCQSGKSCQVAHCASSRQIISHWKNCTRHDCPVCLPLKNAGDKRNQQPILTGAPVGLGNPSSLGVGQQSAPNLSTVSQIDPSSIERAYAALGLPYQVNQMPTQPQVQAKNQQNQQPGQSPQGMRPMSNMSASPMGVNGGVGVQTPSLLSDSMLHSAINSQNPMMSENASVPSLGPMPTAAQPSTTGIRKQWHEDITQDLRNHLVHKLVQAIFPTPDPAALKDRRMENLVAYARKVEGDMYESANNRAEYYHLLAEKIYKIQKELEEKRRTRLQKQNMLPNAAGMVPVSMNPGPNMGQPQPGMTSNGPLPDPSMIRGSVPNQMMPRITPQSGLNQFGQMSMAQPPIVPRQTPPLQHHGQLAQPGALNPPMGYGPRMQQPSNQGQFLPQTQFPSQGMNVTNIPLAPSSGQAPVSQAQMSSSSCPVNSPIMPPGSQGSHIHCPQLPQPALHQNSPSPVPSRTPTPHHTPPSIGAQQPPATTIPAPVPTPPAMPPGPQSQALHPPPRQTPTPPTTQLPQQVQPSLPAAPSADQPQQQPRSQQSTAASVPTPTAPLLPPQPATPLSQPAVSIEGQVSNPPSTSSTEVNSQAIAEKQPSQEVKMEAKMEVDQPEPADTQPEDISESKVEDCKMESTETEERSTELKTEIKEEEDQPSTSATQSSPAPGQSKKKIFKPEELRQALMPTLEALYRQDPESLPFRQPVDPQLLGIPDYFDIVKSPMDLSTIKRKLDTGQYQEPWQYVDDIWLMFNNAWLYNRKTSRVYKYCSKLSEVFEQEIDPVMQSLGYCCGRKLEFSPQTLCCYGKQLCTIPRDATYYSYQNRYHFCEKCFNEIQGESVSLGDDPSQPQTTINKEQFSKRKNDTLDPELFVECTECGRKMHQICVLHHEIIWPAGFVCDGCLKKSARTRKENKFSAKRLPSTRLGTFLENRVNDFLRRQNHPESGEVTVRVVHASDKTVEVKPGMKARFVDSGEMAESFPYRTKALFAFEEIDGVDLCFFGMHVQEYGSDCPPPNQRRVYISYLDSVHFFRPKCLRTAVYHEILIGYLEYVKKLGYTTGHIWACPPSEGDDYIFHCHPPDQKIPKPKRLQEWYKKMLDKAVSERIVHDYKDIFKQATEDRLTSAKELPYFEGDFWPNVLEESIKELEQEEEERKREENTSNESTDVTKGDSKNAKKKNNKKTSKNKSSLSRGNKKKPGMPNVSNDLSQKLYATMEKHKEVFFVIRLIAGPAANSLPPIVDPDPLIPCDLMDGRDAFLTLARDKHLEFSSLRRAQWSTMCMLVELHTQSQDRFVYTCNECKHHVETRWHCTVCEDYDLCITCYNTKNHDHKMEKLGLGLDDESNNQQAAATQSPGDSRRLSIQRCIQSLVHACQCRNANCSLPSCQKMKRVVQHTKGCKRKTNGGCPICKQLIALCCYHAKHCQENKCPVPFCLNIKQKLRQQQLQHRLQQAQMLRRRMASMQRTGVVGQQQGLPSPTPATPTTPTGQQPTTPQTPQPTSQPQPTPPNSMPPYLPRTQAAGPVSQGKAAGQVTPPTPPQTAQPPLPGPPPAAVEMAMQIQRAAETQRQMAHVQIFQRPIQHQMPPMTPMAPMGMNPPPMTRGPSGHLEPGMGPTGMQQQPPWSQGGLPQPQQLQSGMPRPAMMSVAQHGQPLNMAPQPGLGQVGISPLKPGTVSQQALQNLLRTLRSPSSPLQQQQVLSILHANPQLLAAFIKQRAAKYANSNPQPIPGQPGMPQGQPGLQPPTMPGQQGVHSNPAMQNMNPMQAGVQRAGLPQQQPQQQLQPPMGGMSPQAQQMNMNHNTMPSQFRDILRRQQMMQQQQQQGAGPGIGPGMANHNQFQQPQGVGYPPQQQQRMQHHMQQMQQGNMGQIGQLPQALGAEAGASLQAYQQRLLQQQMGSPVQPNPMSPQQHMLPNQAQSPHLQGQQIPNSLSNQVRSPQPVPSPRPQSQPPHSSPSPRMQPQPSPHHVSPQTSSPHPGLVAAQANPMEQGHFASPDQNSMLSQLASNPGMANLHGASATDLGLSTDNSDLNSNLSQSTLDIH

SMILES | Dmax | DC50
Cc1cc(-c2ncc(N(C)c3cc(C4CCOCC4)c4c(c3)n(C)c(=O)n4C)s2)cnc1C(=O)NCC#Cc1ccc2occ(C3CCC(=O)NC3=O)c2c1 (centres unmarked) [Example A149, 5-(5-((1,3-dimethyl-2-oxo-7-(tetrahydro-2H-pyran-4-yl)-2,3-dihydro-1H-benzo[d]imidazol-5-yl)(methyl)amino)thiazol-2-yl)-N-(3-(3-(2,6-dioxopiperidin-3-yl)benzofuran-5-yl)prop-2-yn-1-yl)-3-methylpicolinamide] | < 20% | > 1000 nM
Cn1c(=O)n(C)c2c(-n3cccn3)nc(-c3cccc4cc(-c5ccc(C(=O)NCC#Cc6ccc7occ(C8CCC(=O)NC8=O)c7c6)nc5)ncc34)cc21 (centres unmarked) [Example A152, 5-(8-(1,3-dimethyl-2-oxo-4-(1H-pyrazol-1-yl)-2,3-dihydro-1H-imidazo[4,5-c]pyridin-6-yl)iso-quinolin-3-yl)-N-(3-(3-(2,6-dioxopiperidin-3-yl)benzofuran-5-yl)prop-2-yn-1-yl)picolinamide] | 20 to 39% | 10 to 99 nM
Cc1cc(-c2ccc(N(C)c3cc(C(C)C)c4c(c3)n(C)c(=O)n4C)cn2)cnc1C(=O)NCC#Cc1cc(NC2CCC(=O)NC2=O)nn1C (centres unmarked) [Example A154, N-(3-(3-((2,6-dioxo-piperidin-3-yl)amino)-1-methyl-1H-pyrazol-5-yl)prop-2-yn-1-yl)-5-((7-isopropyl-1,3-dimethyl-2-oxo-2,3-dihydro-1H-benzo [d]imidazol-5-yl) (methyl)amino)-5′-methyl-[2,3′-bipyridine]-6′-carboxamide] | 60 to 79% | 10 to 99 nM
CC(C)c1cc(-c2cccc3cc(-c4ccc(C(=O)NCC#Cc5ccc6occ(C7CCC(=O)NC7=O)c6n5)nc4)ncc23)cc2c1n(C)c(=O)n2C (centres unmarked) [Example A159, N-(3-(3-(2,6-dioxo-piperidin-3-yl)furo[3,2-b]pyridin-5-yl)prop-2-yn-1-yl)-5-(8-(7-isopropyl-1,3-dimethyl-2-oxo-2,3-dihydro-1H-benzo [d]imidazol-5-yl)isoquinolin-3-yl)picolinamide] | 40 to 59% | 10 to 99 nM
COc1cc(-c2cnc(C(=O)NCC#Cc3cc4c(C5CCC(=O)NC5=O)cccc4o3)c(C)c2)ncc1N(C)c1cc(C2CCOCC2)c2c(c1)n(C)c(=O)n2C (centres unmarked) [Example A166, 5-((1,3-dimethyl-2-oxo-7-(tetrahydro-2H-pyran-4-yl)-2,3-dihydro-1H-benzo[d]imidazol-5-yl)(methyl)amino)-N-(3-(4-(2,6-dioxopiperidin-3-yl)benzofuran-2-yl)prop-2-yn-1-yl)-4-methoxy-5′-methyl-[2,3′-bipyridine]-6′-carboxamide] | 20 to 39% | 1 to 9.9 nM
COc1nc(-c2cnc(C(=O)NCC#Cc3cc4c(C5CCC(=O)NC5=O)cccc4o3)c(C)c2)ncc1N(C)c1cc(C2CCOCC2)c2c(c1)n(C)c(=O)n2C (centres unmarked) [Example A167, 5-(5-((1,3-dimethyl-2-oxo-7-(tetrahydro-2H-pyran-4-yl)-2,3-dihydro-1H-benzo[d]imidazol-5-yl)(methyl)amino)-4-methoxypyrimidin-2-yl)-N-(3-(4-(2,6-dioxopiperidin-3-yl)benzofuran-2-yl)prop-2-yn-1-yl)-3-methylpicolinamide] | 60 to 79% | 1 to 9.9 nM
Cc1cc(-c2ncc(N(C)c3cc(C4CCOCC4)c4c(c3)n(C)c(=O)n4C)cn2)cnc1C(=O)NCC#Cc1cc2c(C3CCC(=O)NC3=O)nccc2o1 (centres unmarked) [Example A168, 5-(5-((1,3-dimethyl-2-oxo-7-(tetrahydro-2H-pyran-4-yl)-2,3-dihydro-1H-benzo[d]imidazol-5-yl)(methyl)amino)pyrimidin-2-yl)-N-(3-(4-(2,6-dioxopiperidin-3-yl)furo[3,2-c]pyridin-2-yl)prop-2-yn-1-yl)-3-methylpicolinamide] | > 80% | 1 to 9.9 nM
Cc1cc(-c2cnc(N(C)c3cc(C4CCOCC4)c4c(c3)n(C)c(=O)n4C)cn2)cnc1C(=O)NCC#Cc1cc2c(C3CCC(=O)NC3=O)nccc2o1 (centres unmarked) [Example A176, 5-(5-((1,3-dimethyl-2-oxo-7-(tetrahydro-2H-pyran-4-yl)-2,3-dihydro-1H-benzo[d]imidazol-5-yl)(methyl)amino)pyrazin-2-yl)-N-(3-(4-(2,6-dioxopiperidin-3-yl)furo[3,2-c]pyridin-2-yl)prop-2-yn-1-yl)-3-methylpicolinamide] | > 80% | 10 to 99 nM
Cn1c(=O)n(C)c2cc(-c3cccc4cc(-c5ccc(C(=O)NCC#Cc6cc7c(C8CCC(=O)NC8=O)cccc7o6)nc5)ncc34)ncc21 (centres unmarked) [Example A179, 5-(8-(1,3-dimethyl-2-oxo-2,3-dihydro-1H-imidazo[4,5-c]pyridin-6-yl)isoquinolin-3-yl)-N-(3-(4-(2,6-dioxopiperidin-3-yl)benzofuran-2-yl)prop-2-yn-1-yl)picolinamide] | 60 to 79% | 1 to 9.9 nM
CC(C)c1cc(-c2cccc3cc(-c4ccc(C(=O)NCC#Cc5ccc6c(c5)N(C5CCC(=O)NC5=O)CC6)nc4)ncc23)cc2c1n(C)c(=O)n2C (centres unmarked) [Example A184, N-(3-(1-(2,6-dioxo-piperidin-3-yl)indolin-6-yl)prop-2-yn-1-yl)-5-(8-(7-isopropyl-1,3-dimethyl-2-oxo-2,3-dihydro-1H-benzo[d]imidazol-5-yl)isoquinolin-3-yl)picolinamide] | > 80% | 10 to 99 nM
CC(C)c1cc(-c2cccc3cc(-c4ccc(C(=O)NCC#Cc5nc6c(C7CCC(=O)NC7=O)cccc6n5C)nc4)ncc23)cc2c1n(C)c(=O)n2C (centres unmarked) [Example A186, N-(3-(4-(2,6-dioxo-piperidin-3-yl)-1-methyl-1H-benzo[d]imidazol-2-yl)prop-2-yn-1-yl)-5-(8-(7-iso-propyl-1,3-dimethyl-2-oxo-2,3-dihydro-1H-benzo[d]imidazol-5-yl)isoquinolin-3-yl)picolinamide] | < 20% | > 1000 nM
Cc1nc(-c2ncc(N(C)c3cc(C4CCOCC4)c4c(c3)n(C)c(=O)n4C)cn2)cnc1C(=O)NCC#Cc1cc2c(C3CCC(=O)NC3=O)cccc2o1 (centres unmarked) [Example A187, 5-(5-((1,3-dimethyl-2-oxo-7-(tetrahydro-2H-pyran-4-yl)-2,3-dihydro-1H-benzo[d]imidazol-5-yl)(methyl)amino)pyrimidin-2-yl)-N-(3-(4-(2,6-dioxopiperidin-3-yl)benzofuran-2-yl)prop-2-yn-1-yl)-3-methylpyrazine-2-carboxamide] | > 80% | 1 to 9.9 nM
Cn1c(=O)n(C)c2cc(N3CCOc4nc(-c5ccc(C(=O)NCC#Cc6ccc7nnn(C8CCC(=O)NC8=O)c7c6)nc5)ncc43)ccc21 (centres unmarked) [Example A190, 5-(5-(1,3-dimethyl-2-oxo-2,3-dihydro-1H-benzo[d]imidazol-5-yl)-6,7-dihydro-5H-pyrimido[4,5-b][1,4]oxazin-2-yl)-N-(3-(1-(2,6-dioxopiperidin-3-yl)-1H-benzo[d] [1,2,3]triazol-6-yl)prop-2-yn-1-yl)picolinamide] | 60 to 79% | 1 to 9.9 nM

Results, then the compound that gave them:

Dmax | DC50 | SMILES
> 80% | 1 to 9.9 nM | CC(C)c1cc(N2CCCc3cc(-c4ccc(C(=O)NCC#Cc5ccc6occ(C7CCC(=O)NC7=O)c6c5)nc4)c(C(F)F)cc32)cc2c1n(C)c(=O)n2C (centres unmarked) [Example A151, 5-(7-(difluoromethyl)-1-(7-isopropyl-1,3-dimethyl-2-oxo-2,3-dihydro-1H-benzo[d]imidazol-5-yl)-1,2,3,4-tetrahydroquinolin-6-yl)-N-(3-(3-(2,6-dioxopiperidin-3-yl)benzofuran-5-yl)prop-2-yn-1-yl)picolinamide]
> 80% | 1 to 9.9 nM | Cc1cc(-c2ncc(N(C)c3cc(C(C)C)c4c(c3)n(C)c(=O)n4C)cc2F)cnc1C(=O)NCC#Cc1ccc2occ(C3CCC(=O)NC3=O)c2c1 (centres unmarked) [Example A153, N-(3-(3-(2,6-dioxo-piperidin-3-yl)benzofuran-5-yl)prop-2-yn-1-yl)-3-fluoro-5-((7-iso-propyl-1,3-dimethyl-2-oxo-2,3-dihydro-1H-benzo[d]imidazol-5-yl)(methyl)amino)-5′-methyl-[2,3′-bipyridine]-6′-carboxamide]
> 80% | 1 to 9.9 nM | Cc1cc(-c2ncc(N(C)c3cc(C(C)C)c4c(c3)n(C)c(=O)n4C)cn2)cnc1C(=O)NCC#Cc1ccc2occ(C3CCC(=O)NC3=O)c2c1 (centres unmarked) [Example A156, N-(3-(3-(2,6-dioxo-piperidin-3-yl)benzofuran-5-yl)prop-2-yn-1-yl)-5-(5-((7-isopropyl-1,3-dimethyl-2-oxo-2,3-dihydro-1H-benzo [d]imidazol-5-yl)(methyl)amino)pyrimidin-2-yl)-3-methylpicolinamide]
> 80% | 1 to 9.9 nM | Cn1c(=O)n(C)c2ncc(-c3cccc4cc(-c5ccc(C(=O)NCC#Cc6ccc7occ(C8CCC(=O)NC8=O)c7c6)nc5)ncc34)cc21 (centres unmarked) [Example A157, 5-(8-(1,3-dimethyl-2-oxo-2,3-dihydro-1H-imidazo[4,5-b]pyridin-6-yl)isoquinolin-3-yl)-N-(3-(3-(2,6-dioxopiperidin-3-yl)benzofuran-5-yl)prop-2-yn-1-yl)picolinamide]
> 80% | < 1 nM | Cc1cc(-c2cccc3cc(-c4ccc(C(=O)NCC#Cc5cc6c(C7CCC(=O)NC7=O)cccc6o5)nc4)ncc23)cc2c1n(C)c(=O)n2C (centres unmarked) [Example A183, N-(3-(4-(2,6-dioxo-piperidin-3-yl)benzofuran-2-yl)prop-2-yn-1-yl)-5-(8-(1,3,7-trimethyl-2-oxo-2,3-dihydro-1H-benzo[d]imidazol-5-yl)isoquinolin-3-yl)picolinamide]
> 80% | < 1 nM | Cc1cc(N2CCCc3nc(-c4ccc(C(=O)NCC#Cc5cc6c(C7CCC(=O)NC7=O)cccc6o5)nc4)ncc32)cc2c1n(C)c(=O)n2C (centres unmarked) [Example A188, N-(3-(4-(2,6-dioxo-piperidin-3-yl)benzofuran-2-yl)prop-2-yn-1-yl)-5-(5-(1,3,7-trimethyl-2-oxo-2,3-dihydro-1H-benzo[d]imidazol-5-yl)-5,6,7,8-tetrahydropyrido[3,2-d]pyrimidin-2-yl)picolinamide]
